Assay results reported in patent US11111238B2, “Coumarin derivatives, processes for their preparation and uses thereof for the treatment of cancer” (Lead Discovery Center GmbH, priority 2017, dated 2021).

Columns and labels:
[1] = molecular target: mitochondrial RNA-polymerase (POLRMT) (Mus musculus, UniProt Q8BKF1); assay: Homogeneous TR-FRET assay for mitochondrial transcription activity; assay type: biochemical; settings: homogeneous TR-FRET assay according to Example 4; activity class
In short: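 TR-FRET read-out (340 nm excitation, 665 nm emission) of a 407 bp transcript captured by Eu-streptavidin/biotin donor and ATTO647N acceptor DNA probes after EDTA stop. Transcription ran 2 h at RT with 500 μM […], mouse POLRMT/TFAM/TFB2M and LSP-plasmid template, after 10 min compound preincubation (10 μM or dilution series).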

[2] = test system: mitochondrial transcription (7S RNA) in HeLa cells; assay: Quantitative real time-PCR assay of inhibition of mitochondrial transcription (cellular qPCR assay IMT); assay type: cell-based; settings: Homo sapiens, 4 h compound incubation, qRT-PCR according to Example 5, activity class
Method: Quantitative real-time PCR (qRT-PCR), based on the TagMan™ (Thermo Fisher Scientific, Waltham Mass.) technology, was carried out essentially as described in (Heid et al., 1996). HeLa cells were plated one day before compound treatment in RPMI medium supplemented with 10% Fetal Calf Serum and 2 mM L-glutamine. Cells were incubated with dilution series of compounds or vehicle (DMSO) for 4 h, prior to harvest and extraction of the RNA using the RNeasy Mini Kit (Qiagen, Hilden D), according to the manufacturer's instructions. RNA concentrations were measured spectroscopically, using a NanoDrop-2000 (Thermo Fisher Scientific, Waltham Mass.) and normalized prior to cDNA synthesis, using a ‘High-Capacity cDNA Reverse Transcription Kit’ (Thermo Fisher Scientific, Waltham Mass.). qRT-PCR was carried out using the ‘TaqMan Fast Advance Master Mix’ (Thermo Fisher Scientific, Waltham Mass.) on a 7500 Fast Real-Time PCR machine (Applied Biosystems, Foster City Calif.)
For these measurements, three genes were used to compare the effect of the scrutinized compounds in relation to their concentration. The POLRMT-gene was used to detect potential influences on nuclear transcription. Mitochondrial transcription in vivo was monitored by measurements 7S RNA. The TBP (TATA-box binding protein) gene was employed as the control (housekeeping gene) during qRT-PCR. The short-lived mitochondrial 7S RNA, which is not post-transcriptionally stabilized, allowed us to monitor rapid changes in mitochondrial transcription activity following compound addition. Biological triplicates were analyzed using the comparative CT Method (ΔΔCt) method (Bubner and Baldwin, 2004) and reported as Rq % values (Rq=Relative quantification=2-ΔΔCt).

Chain of mitochondrial RNA-polymerase (POLRMT) (Q8BKF1 42-1207): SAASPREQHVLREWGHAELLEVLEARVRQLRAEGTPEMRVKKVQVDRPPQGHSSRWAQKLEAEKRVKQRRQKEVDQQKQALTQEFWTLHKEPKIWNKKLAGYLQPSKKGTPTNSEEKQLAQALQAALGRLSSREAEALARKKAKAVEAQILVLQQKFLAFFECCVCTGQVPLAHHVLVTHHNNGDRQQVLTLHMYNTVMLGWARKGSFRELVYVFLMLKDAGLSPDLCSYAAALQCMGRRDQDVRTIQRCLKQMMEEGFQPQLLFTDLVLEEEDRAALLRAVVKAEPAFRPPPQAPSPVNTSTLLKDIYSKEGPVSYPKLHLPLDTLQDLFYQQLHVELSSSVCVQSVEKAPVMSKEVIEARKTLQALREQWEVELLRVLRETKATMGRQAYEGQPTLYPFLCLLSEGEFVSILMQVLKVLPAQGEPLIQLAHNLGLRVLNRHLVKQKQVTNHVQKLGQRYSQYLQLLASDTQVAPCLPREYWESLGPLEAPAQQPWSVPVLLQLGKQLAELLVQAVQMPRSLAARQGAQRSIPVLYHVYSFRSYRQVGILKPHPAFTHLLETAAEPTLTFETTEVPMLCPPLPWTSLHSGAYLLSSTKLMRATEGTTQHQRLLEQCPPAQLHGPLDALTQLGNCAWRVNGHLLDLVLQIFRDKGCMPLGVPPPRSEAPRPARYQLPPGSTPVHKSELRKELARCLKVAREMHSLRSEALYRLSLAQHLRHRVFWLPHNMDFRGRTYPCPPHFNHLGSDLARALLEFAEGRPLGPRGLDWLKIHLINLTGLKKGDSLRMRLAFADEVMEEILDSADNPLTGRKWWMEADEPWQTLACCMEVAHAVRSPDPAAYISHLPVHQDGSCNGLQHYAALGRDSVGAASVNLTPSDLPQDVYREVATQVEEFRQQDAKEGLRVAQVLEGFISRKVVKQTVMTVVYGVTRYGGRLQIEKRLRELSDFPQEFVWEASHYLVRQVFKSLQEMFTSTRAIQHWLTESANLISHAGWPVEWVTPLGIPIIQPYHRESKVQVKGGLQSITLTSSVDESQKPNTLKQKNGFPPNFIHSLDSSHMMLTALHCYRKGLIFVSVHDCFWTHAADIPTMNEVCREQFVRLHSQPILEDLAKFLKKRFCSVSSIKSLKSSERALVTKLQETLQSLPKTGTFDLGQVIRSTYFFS

Compound | IC50 [1] [nM] | IC50 [2] [nM]
C[C@@H](Oc1ccc2c(-c3ccc(F)cc3Cl)cc(=O)oc2c1)C(=O)N1CCN(C)C(C(=O)O)C1 (mixture of isomers) [Compound 161, 1-methyl-4-[rac-(2R)-2-[4-(2-chloro-4-fluoro-phenyl)-2-oxo-chromen-7-yl]oxypropanoyl]piperazine-2-carboxylic acid] | 100 to 1000 | 500 to 5000
CC(Oc1ccc2c(-c3ccccc3Cl)cc(=O)oc2n1)C(=O)N1CCC[C@H](C(=O)O)C1 (mixture of isomers) [Compound 170, rac-(3S)-1-[2-[4-(2-chlorophenyl)-2-oxo-pyrano[2,3-b]pyridin-7-yl]oxypropanoyl]piperidine-3-carboxylic acid] | 20 to 100 | 50 to 500
Cc1ccccc1-c1cc(=O)oc2cc(OC(C)C(=O)N3CCCCC3)ccc12 (centres unmarked) [Compound 1, 7-[1-methyl-2-oxo-2-(1-piperidyl)ethoxy]-4-(o-tolyl)chromen-2-one] | < 20 | < 10
CC(Oc1ccc2c(-c3ccccc3Cl)cc(=O)oc2c1)C(=O)N1CCCCC1 (centres unmarked) [Compound 2, 4-(2-chlorophenyl)-7-[1-methyl-2-oxo-2-(1-piperidyl)ethoxy]chromen-2-one] | < 20 | < 10
Cc1ccccc1-c1cc(=O)oc2cc(OC(C)C(=O)N3CCCC(C(=O)O)C3)ccc12 (centres unmarked) [Compound 8, 1-[2-[4-(o-tolyl)-2-oxo-chromen-7-yl]oxypropanoyl]piperidine-3-carboxylic acid] | < 20 | < 10
CC(Oc1ccc2c(-c3ccccc3Cl)cc(=O)oc2c1)C(=O)N1CCCC(C(=O)O)C1 (centres unmarked) [Compound 9, 1-[2-[4-(2-chlorophenyl)-2-oxo-chromen-7-yl]oxypropanoyl]piperidine-3-carboxylic acid] | < 20 | < 10
Cc1ccccc1-c1cc(=O)oc2cc(OC(C)C(=O)N3CCCC(S(N)(=O)=O)C3)ccc12 (centres unmarked) [Compound 12, 1-[2-[4-(o-tolyl)-2-oxo-chromen-7-yl]oxypropanoyl]piperidine-3-sulfonamide] | < 20 | < 10
CNC(=O)C1CCCN(C(=O)C(C)Oc2ccc3c(-c4ccccc4Cl)cc(=O)oc3c2)C1 (centres unmarked) [Compound 15, 1-[2-[4-(2-chlorophenyl)-2-oxo-chromen-7-yl]oxypropanoyl]-N-methyl-piperidine-3-carboxamide] | < 20 | < 10
CNS(=O)(=O)C1CCCN(C(=O)C(C)Oc2ccc3c(-c4ccccc4C)cc(=O)oc3c2)C1 (centres unmarked) [Compound 18, N-methyl-1-[2-[4-(o-tolyl)-2-oxo-chromen-7-yl]oxypropanoyl]piperidine-3-sulfonamide] | < 20 | < 10
CNC(=O)C1CCCN(C(=O)C(C)Oc2ccc3c(-c4ccccc4C)cc(=O)oc3c2)C1 (centres unmarked) [Compound 21, N-methyl-1-[2-[4-(o-tolyl)-2-oxo-chromen-7-yl]oxypropanoyl]piperidine-3-carboxamide] | < 20 | < 10
C[C@@H](Oc1ccc2c(-c3ccccc3Cl)cc(=O)oc2c1)C(=O)N1CCC[C@H](C(=O)O)C1 [Compound 23, (3S)-1-[(2R)-2-[4-(2-chlorophenyl)-2-oxo-chromen-7-yl]oxypropanoyl]piperidine-3-carboxylic acid] | < 20 | < 10
CC(Oc1ccc2c(-c3ccccc3Cl)cc(=O)oc2c1)C(=O)N1CCCC(S(N)(=O)=O)C1 (centres unmarked) [Compound 24, 1-[2-[4-(2-chlorophenyl)-2-oxo-chromen-7-yl]oxypropanoyl]piperidine-3-sulfonamide] | < 20 | < 10
Cc1ccccc1-c1cc(=O)oc2cc(OC(C)C(=O)NC3CC3)ccc12 (centres unmarked) [Compound 25, N-cyclopropyl-2-[4-(o-tolyl)-2-oxo-chromen-7-yl]oxy-propanamide] | < 20 | < 10
CC(Oc1ccc2c(-c3ccccc3Cl)cc(=O)oc2c1)C(=O)NC1CC1 (centres unmarked) [Compound 26, 2-[4-(2-chlorophenyl)-2-oxo-chromen-7-yl]oxy-N-cyclopropyl-propanamide] | < 20 | < 10
Cc1ccccc1-c1cc(=O)oc2cc(O[C@H](C)C(=O)N3CCC[C@H](C(=O)O)C3)ccc12 [Compound 27, (3S)-1-[(2R)-2-[4-(o-tolyl)-2-oxo-chromen-7-yl]oxypropanoyl]piperidine-3-carboxylic acid] | < 20 | < 10
CC(Oc1ccc2c(-c3ccccc3Cl)cc(=O)oc2c1)C(=O)N1CCC[C@H](C(=O)O)C1 (stereo partly drawn) [Compound 33, (3S)-1-[2-[4-(2-chlorophenyl)-2-oxo-chromen-7-yl]oxypropanoyl]piperidine-3-carboxylic acid] | < 20 | < 10
Cc1ccccc1-c1cc(=O)oc2cc(O[C@H](C)C(=O)NC(C)C)ccc12 [Compound 36, (2R)-N-isopropyl-2-[4-(o-tolyl)-2-oxo-chromen-7-yl]oxy-propanamide] | < 20 | < 10
CC(Oc1ccc2c(-c3ccc(F)cc3Cl)cc(=O)oc2c1)C(=O)N1CCCC(C)(C(=O)O)C1 (centres unmarked) [Compound 37, 1-[2-[4-(2-chloro-4-fluoro-phenyl)-2-oxo-chromen-7-yl]oxypropanoyl]-3-methyl-piperidine-3-carboxylic acid] | < 20 | < 10
Cc1ccccc1-c1cc(=O)oc2cc(OC(C)C(=O)N3CCCC(c4nn[nH]n4)C3)ccc12 (centres unmarked) [Compound 42, 7-((1-(3-(2H-tetrazol-5-yl)piperidin-1-yl)-1-oxopropan-2-yl)oxy)-4-(o-tolyl)-2H-chromen-2-one] | < 20 | 10 to 50
CC(Oc1ccc2c(-c3ccccc3Cl)cc(=O)oc2c1)C(=O)N1CCCC(C)(C(=O)O)C1 (centres unmarked) [Compound 54, 1-[2-[4-(2-chlorophenyl)-2-oxo-chromen-7-yl]oxypropanoyl]-3-methyl-piperidine-3-carboxylic acid] | < 20 | < 10
CC(C)NC(=O)[C@@H](C)Oc1ccc2c(-c3ccccc3Cl)cc(=O)oc2c1 [Compound 56, (2R)-2-[4-(2-chlorophenyl)-2-oxo-chromen-7-yl]oxy-N-isopropyl-propanamide] | 20 to 100 | < 10
CC(Oc1ccc2c(-c3ccccc3Cl)cc(=O)oc2c1)C(=O)N1CCC(CC(=O)O)CC1 (centres unmarked) [Compound 59, 2-[1-[2-[4-(2-chlorophenyl)-2-oxo-chromen-7-yl]oxypropanoyl]-4-piperidyl]acetic acid] | 20 to 100 | 10 to 50
Cc1ccccc1-c1cc(=O)oc2cc(OC(C)C(=O)NC(C)C)ccc12 (centres unmarked) [Compound 62, N-isopropyl-2-[4-(o-tolyl)-2-oxo-chromen-7-yl]oxy-propanamide] | 20 to 100 | < 10
CC(Oc1ccc2c(-c3ccccc3Cl)cc(=O)oc2c1)C(=O)N1CCCC(CC(=O)O)C1 (centres unmarked) [Compound 66, 2-[1-[2-[4-(2-chlorophenyl)-2-oxo-chromen-7-yl]oxypropanoyl]-3-piperidyl]acetic acid] | 20 to 100 | < 10
CC(Oc1ccc2c(-c3ccc(F)cc3Cl)cc(=O)oc2c1)C(=O)N1CCCC(S(N)(=O)=O)C1 (centres unmarked) [Compound 69, 1-[2-[4-(2-chloro-4-fluoro-phenyl)-2-oxo-chromen-7-yl]oxypropanoyl]piperidine-3-sulfonamide] | 20 to 100 | < 10
CC(C)NC(=O)C(C)Oc1ccc2c(-c3ccccc3Cl)cc(=O)oc2c1 (centres unmarked) [Compound 70, 2-[4-(2-chlorophenyl)-2-oxo-chromen-7-yl]oxy-N-isopropyl-propanamide] | 20 to 100 | < 10
Cc1ccccc1-c1cc(=O)oc2cc(OC(C)C(=O)N3CCC[C@@H](C(=O)N(C)C)C3)ccc12 (stereo partly drawn) [Compound 78, (3R)-N,N-dimethyl-1-[2-[4-(o-tolyl)-2-oxo-chromen-7-yl]oxypropanoyl]piperidine-3-carboxamide] | 20 to 100 | < 10
CC(Oc1ccc2c(-c3ccccc3Cl)cc(=O)oc2c1)C(=O)N1CCCC(S(C)(=N)=O)C1 (centres unmarked) [Compound 79, 4-(2-chlorophenyl)-7-[1-methyl-2-[3-(methylsulfonimidoyl)-1-piperidyl]-2-oxo-ethoxy]chromen-2-one] | 20 to 100 | < 10
COC(=O)CC1CCN(C(=O)C(C)Oc2ccc3c(-c4ccccc4Cl)cc(=O)oc3c2)CC1 (centres unmarked) [Compound 80, methyl 2-[1-[2-[4-(2-chlorophenyl)-2-oxo-chromen-7-yl]oxypropanoyl]-4-piperidyl]acetate] | 20 to 100 | 50 to 500
C[C@@H](Oc1ccc2c(-c3ccc(F)cc3Cl)cc(=O)oc2c1)C(=O)N1CCC[C@H](C(=O)OCCN2CCOCC2)C1 [Compound 119, 2-morpholinoethyl (3S)-1-[(2R)-2-[4-(2-chloro-4-fluoro-phenyl)-2-oxo-chromen-7-yl]oxypropanoyl]piperidine-3-carboxylate] |  | < 10
